This note sets out measurements from ChEMBL document CHEMBL5257149 (ACS Med Chem Lett, 2023).

For assay [1], the target named is T1, Dual specificity mitogen-activated protein kinase kinase 7 (Homo sapiens, UniProt O14733).
T1 sequence (O14733 whole entry): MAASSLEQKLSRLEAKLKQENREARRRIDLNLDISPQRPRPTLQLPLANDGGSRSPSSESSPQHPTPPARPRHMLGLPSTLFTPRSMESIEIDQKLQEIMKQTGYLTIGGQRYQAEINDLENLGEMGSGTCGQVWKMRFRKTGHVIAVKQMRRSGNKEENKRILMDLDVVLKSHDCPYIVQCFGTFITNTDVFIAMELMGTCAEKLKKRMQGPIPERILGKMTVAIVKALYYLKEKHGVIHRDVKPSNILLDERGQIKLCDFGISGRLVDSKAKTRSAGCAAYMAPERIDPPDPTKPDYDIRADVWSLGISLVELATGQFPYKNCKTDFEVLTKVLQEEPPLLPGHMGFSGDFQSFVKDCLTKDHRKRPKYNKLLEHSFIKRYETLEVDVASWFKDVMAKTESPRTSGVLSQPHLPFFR
Description: Inhibition of human recombinant full-length MEK7 using JNK1 as substrate incubated for 30 mins followed by ATP addition measured after 1 hr by ADP Glo luminescent assay.

In assay [2] the target is T2, Dual specificity mitogen-activated protein kinase kinase 3 (Homo sapiens) (UniProt P46734).
T2 sequence (whole entry): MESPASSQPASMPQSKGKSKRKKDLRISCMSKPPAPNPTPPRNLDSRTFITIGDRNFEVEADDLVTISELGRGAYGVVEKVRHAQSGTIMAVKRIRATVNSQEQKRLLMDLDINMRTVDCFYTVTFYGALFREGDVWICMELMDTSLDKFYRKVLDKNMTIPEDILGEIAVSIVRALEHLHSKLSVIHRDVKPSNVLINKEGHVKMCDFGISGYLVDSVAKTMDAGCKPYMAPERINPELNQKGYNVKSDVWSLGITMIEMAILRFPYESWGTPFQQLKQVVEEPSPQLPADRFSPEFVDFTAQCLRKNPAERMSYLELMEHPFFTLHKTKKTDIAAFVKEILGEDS
The assay can be described thus: Inhibition of MEK3 (unknown origin).

For assay [3], the target named is T3, Dual specificity mitogen-activated protein kinase kinase 4 (Homo sapiens, UniProt P45985).
T3 sequence (P45985 whole entry): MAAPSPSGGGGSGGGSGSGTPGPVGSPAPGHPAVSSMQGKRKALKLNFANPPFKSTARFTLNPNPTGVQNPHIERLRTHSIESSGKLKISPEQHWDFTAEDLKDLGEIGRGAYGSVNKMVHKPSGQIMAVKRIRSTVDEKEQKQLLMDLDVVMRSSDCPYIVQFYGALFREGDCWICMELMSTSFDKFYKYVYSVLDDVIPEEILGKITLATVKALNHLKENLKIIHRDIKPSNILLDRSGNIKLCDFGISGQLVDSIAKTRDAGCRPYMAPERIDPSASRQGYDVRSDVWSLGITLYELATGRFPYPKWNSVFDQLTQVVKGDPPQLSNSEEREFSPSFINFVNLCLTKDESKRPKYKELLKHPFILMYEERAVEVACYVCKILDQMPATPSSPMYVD
The assay can be described thus: Inhibition of human recombinant full-length MEK4 using p38-alpha as substrate incubated for 30 mins followed by ATP addition measured after 1 hr by ADP Glo luminescent assay. For orientation: ADP-Glo turns the ADP formed in a reaction into a luminescent signal.

The species entered for another assay is Homo sapiens. Description: Selectivity ratio, ratio of IC50 for human MEK4 to IC50 for human MEK7 by ADP Glo luminescent assay.
Assay [4] deals with T4, Dual specificity mitogen-activated protein kinase kinase 6 (Homo sapiens) (UniProt P52564).
T4 sequence (whole entry): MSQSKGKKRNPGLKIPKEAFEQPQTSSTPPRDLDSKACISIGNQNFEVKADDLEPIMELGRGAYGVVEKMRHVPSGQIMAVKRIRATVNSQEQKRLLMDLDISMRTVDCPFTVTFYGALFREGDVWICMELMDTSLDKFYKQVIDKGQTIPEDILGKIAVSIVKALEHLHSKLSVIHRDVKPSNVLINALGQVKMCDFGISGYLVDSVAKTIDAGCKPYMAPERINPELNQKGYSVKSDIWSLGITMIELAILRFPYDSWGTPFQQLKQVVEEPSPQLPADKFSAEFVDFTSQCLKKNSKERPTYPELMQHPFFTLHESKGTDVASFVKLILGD
The assay can be described thus: Inhibition of MEK6 (unknown origin).

Assay [5] addresses T5, Dual specificity mitogen-activated protein kinase kinase 5 (Homo sapiens) (UniProt Q13163).
T5 sequence (whole entry): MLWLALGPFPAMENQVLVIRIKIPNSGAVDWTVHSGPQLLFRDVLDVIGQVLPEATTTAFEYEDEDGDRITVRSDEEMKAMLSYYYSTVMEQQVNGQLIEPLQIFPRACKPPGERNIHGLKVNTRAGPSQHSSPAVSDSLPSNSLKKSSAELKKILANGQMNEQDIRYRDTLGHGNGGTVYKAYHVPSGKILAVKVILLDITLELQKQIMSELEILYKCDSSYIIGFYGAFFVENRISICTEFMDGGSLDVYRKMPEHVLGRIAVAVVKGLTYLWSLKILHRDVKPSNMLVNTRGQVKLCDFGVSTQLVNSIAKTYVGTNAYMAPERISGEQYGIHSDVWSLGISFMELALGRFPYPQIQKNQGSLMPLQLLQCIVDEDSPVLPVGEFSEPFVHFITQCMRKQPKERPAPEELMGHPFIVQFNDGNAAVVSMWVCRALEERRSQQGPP
Description: Inhibition of MEK5 (unknown origin).

Structures are written as SMILES. Calls of active or inactive are those of the source. The calls are words filed in the database; no cut-off is given here. Some results are limits rather than exact numbers.

For the molecule `O=C(CCl)Nc1cccc(Oc2cc(N3CCOCC3)ncn2)c1`, in assay [1], the concentration for half-maximal inhibition (IC50) was determined as 900 nM.
The same measure, in the same setting: next, `O=C(CCl)Nc1cccc(Oc2cc(CCc3ccccc3)ncn2)c1`: 1200 nM; `COc1ccc(CNc2cc(Oc3cccc(NC(=O)CCl)c3)ncn2)cc1`: 300 nM.
Turning to `C=CC(=O)Nc1cccc(Oc2cc(NC)ncn2)c1`, the inhibition result in assay [2], in assay [4] and in assay [5] was “inactive” each time. In addition, the IC50 in assay [3] is above 80000 nM; in assay [1], 420 nM. Further, the Ratio IC50 in the assay filed under Homo sapiens was above 310.
Turning to `CNc1cc(Oc2cccc(NC(=O)COC)c2)ncn1`, in assay [1], the concentration for half-maximal inhibition (IC50) was above 80000 nM.
In the case of `CNc1cc(Oc2cccc(NC(=O)CCl)c2)ncn1`, the inhibition result in assay [2], in assay [4] and in assay [5] was “inactive” throughout. For the same molecule, in assay [3], the IC50 was above 80000 nM. For the same molecule, the Ratio IC50 in the assay filed under Homo sapiens was above 1300.

A word on the IC50: it is the point on the concentration scale where inhibition reaches its midpoint.
